Results: patent US12077503B2, “Substituted cyclic amides and their use as herbicides” (FMC CORPORATION, priority 2015, dated 2024)

What was measured:
Assay type in all cases: in vivo
[1] = system: barnyardgrass (Echinochloa crus-galli); assay: Test G Pre-Emergence Protocol; conditions: Echinochloa crus-galli, pre-emergence, 312 h, evaluated after 13 days; for pest or weed control at 15.625 g/ha: 15.625 g ai/ha; for pest or weed control at 15.625 g/ha / pest or weed control at 250 g/ha: read-out: Barnyardgrass damage rating (100=total damage to plant; 0=no damage to plant); for pest or weed control at 62.5 g/ha: 62.5 g ai/ha, 100=total damage to plant, 0=no damage to plant, read-out: Barnyardgrass damage rating; for pest or weed control at 250 g/ha: 250 g ai/ha
Summary of the method: (§1)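 Herbicidal effect was rated 13 days post-application on a scale where 100 equals total damage. Spraying took place the day after sowing, using 15.625, 62.5 or 250 g/ha of compound in a 50:50 acetone/water solution with 0.5% Tween 20.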

[2] = system: ivy-leaved morning glory (Ipomoea hederacea); assay: Test G Pre-Emergence Protocol; conditions: Ipomoea, pre-emergence, 312 h, evaluated after 13 days; for pest or weed control at 15.625 g/ha: 15.625 g ai/ha; for pest or weed control at 15.625 g/ha / pest or weed control at 250 g/ha: read-out: Morningglory, Ivy-leaved damage rating (100=total damage to plant; 0=no damage to plant); for pest or weed control at 62.5 g/ha: 62.5 g ai/ha, 100=total damage to plant, 0=no damage to plant, read-out: Morningglory, Ivy-leaved damage rating; for pest or weed control at 250 g/ha: 250 g ai/ha
Summary of the method: as §1

[3] = system: velvetleaf (Abutilon theophrasti); assay: Test G Pre-Emergence Protocol; conditions: Abutilon theophrasti, pre-emergence, 312 h, evaluated after 13 days; for pest or weed control at 15.625 g/ha: 15.625 g ai/ha; for pest or weed control at 15.625 g/ha / pest or weed control at 250 g/ha: read-out: Velvetleaf damage rating (100=total damage to plant; 0=no damage to plant); for pest or weed control at 62.5 g/ha: 62.5 g ai/ha, 100=total damage to plant, 0=no damage to plant, read-out: Velvetleaf damage rating; for pest or weed control at 250 g/ha: 250 g ai/ha
Summary of the method: as §1

corn (Zea mays) [4] = assay: Test G Pre-Emergence Protocol; conditions: Zea mays, pre-emergence, 312 h, evaluated after 13 days; for plant injury at 15.625 g/ha: 15.625 g ai/ha; for plant injury at 15.625 g/ha / plant injury at 250 g/ha: read-out: Corn damage rating (100=total damage to plant; 0=no damage to plant); for plant injury at 62.5 g/ha: 62.5 g ai/ha, 100=total damage to plant, 0=no damage to plant, read-out: Corn damage rating; for plant injury at 250 g/ha: 250 g ai/ha
Summary of the method: as §1

[5] = system: giant foxtail (Setaria faberi); assay: Test G Pre-Emergence Protocol; conditions: Setaria faberi, pre-emergence, 312 h, evaluated after 13 days; for pest or weed control at 15.625 g/ha: 15.625 g ai/ha; for pest or weed control at 15.625 g/ha / pest or weed control at 250 g/ha: read-out: Foxtail, Giant damage rating (100=total damage to plant; 0=no damage to plant); for pest or weed control at 62.5 g/ha: 62.5 g ai/ha, 100=total damage to plant, 0=no damage to plant, read-out: Foxtail, Giant damage rating; for pest or weed control at 250 g/ha: 250 g ai/ha
Summary of the method: as §1

[6] = system: redroot pigweed (Amaranthus retroflexus); assay: Test G Pre-Emergence Protocol; conditions: Amaranthus retroflexus, pre-emergence, 312 h, evaluated after 13 days; for pest or weed control at 15.625 g/ha: 15.625 g ai/ha; for pest or weed control at 15.625 g/ha / pest or weed control at 250 g/ha: read-out: Pigweed, Redroot damage rating (100=total damage to plant; 0=no damage to plant); for pest or weed control at 62.5 g/ha: 62.5 g ai/ha, 100=total damage to plant, 0=no damage to plant, read-out: Pigweed, Redroot damage rating; for pest or weed control at 250 g/ha: 250 g ai/ha
Summary of the method: as §1

[7] = system: barnyardgrass (Echinochloa crus-galli); assay: Test G Post-Emergence Protocol; conditions: Echinochloa crus-galli, post-emergence, 312 h, read-out: Barnyardgrass damage rating; for pest or weed control at 15.625 g/ha: 15.625 g ai/ha, evaluated after 13 days (100=total damage to plant; 0=no damage to plant); for pest or weed control at 62.5 g/ha: 62.5 g ai/ha; for pest or weed control at 62.5 g/ha / pest or weed control at 250 g/ha: evaluated after 13 days, 100=total damage to plant, 0=no damage to plant; for pest or weed control at 250 g/ha: 250 g ai/ha
Summary of the method: (§2)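 Damage was rated 13 days after treatment from 0 (none) to 100 (plant killed). Compound was applied as a spray at 15.625, 62.5 or 250 g/ha in 50:50 acetone/water containing 0.5% Tween 20, onto 8-day-old potted plants kept in a glasshouse (24/16 °C, 14 h light, 65% humidity).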

[8] = system: ivy-leaved morning glory (Ipomoea hederacea); assay: Test G Post-Emergence Protocol; conditions: Ipomoea, post-emergence, 312 h, read-out: Morningglory, Ivy-leaved damage rating; for pest or weed control at 15.625 g/ha: 15.625 g ai/ha, evaluated after 13 days (100=total damage to plant; 0=no damage to plant); for pest or weed control at 62.5 g/ha: 62.5 g ai/ha; for pest or weed control at 62.5 g/ha / pest or weed control at 250 g/ha: evaluated after 13 days, 100=total damage to plant, 0=no damage to plant; for pest or weed control at 250 g/ha: 250 g ai/ha
Summary of the method: as §2

[9] = system: velvetleaf (Abutilon theophrasti); assay: Test G Post-Emergence Protocol; conditions: Abutilon theophrasti, post-emergence, 312 h, read-out: Velvetleaf damage rating; for pest or weed control at 15.625 g/ha: 15.625 g ai/ha, evaluated after 13 days (100=total damage to plant; 0=no damage to plant); for pest or weed control at 62.5 g/ha: 62.5 g ai/ha; for pest or weed control at 62.5 g/ha / pest or weed control at 250 g/ha: evaluated after 13 days, 100=total damage to plant, 0=no damage to plant; for pest or weed control at 250 g/ha: 250 g ai/ha
Summary of the method: as §2

corn (Zea mays) [10] = assay: Test G Post-Emergence Protocol; conditions: Zea mays, post-emergence, 312 h, read-out: Corn damage rating; for plant injury at 15.625 g/ha: 15.625 g ai/ha, evaluated after 13 days (100=total damage to plant; 0=no damage to plant); for plant injury at 62.5 g/ha: 62.5 g ai/ha; for plant injury at 62.5 g/ha / plant injury at 250 g/ha: evaluated after 13 days, 100=total damage to plant, 0=no damage to plant; for plant injury at 250 g/ha: 250 g ai/ha
Summary of the method: as §2

[11] = system: giant foxtail (Setaria faberi); assay: Test G Post-Emergence Protocol; conditions: Setaria faberi, post-emergence, 312 h, read-out: Foxtail, Giant damage rating; for pest or weed control at 15.625 g/ha: 15.625 g ai/ha, evaluated after 13 days (100=total damage to plant; 0=no damage to plant); for pest or weed control at 62.5 g/ha: 62.5 g ai/ha; for pest or weed control at 62.5 g/ha / pest or weed control at 250 g/ha: evaluated after 13 days, 100=total damage to plant, 0=no damage to plant; for pest or weed control at 250 g/ha: 250 g ai/ha
Summary of the method: as §2

[12] = system: redroot pigweed (Amaranthus retroflexus); assay: Test G Post-Emergence Protocol; conditions: Amaranthus retroflexus, post-emergence, 312 h, read-out: Pigweed, Redroot damage rating; for pest or weed control at 15.625 g/ha: 15.625 g ai/ha, evaluated after 13 days (100=total damage to plant; 0=no damage to plant); for pest or weed control at 62.5 g/ha: 62.5 g ai/ha; for pest or weed control at 62.5 g/ha / pest or weed control at 250 g/ha: evaluated after 13 days, 100=total damage to plant, 0=no damage to plant; for pest or weed control at 250 g/ha: 250 g ai/ha
Summary of the method: as §2

Row | SMILES | pest or weed control at 15.625 g/ha [1] [%] | pest or weed control at 62.5 g/ha [1] [%] | pest or weed control at 250 g/ha [1] [%] | pest or weed control at 15.625 g/ha [2] [%] | pest or weed control at 62.5 g/ha [2] [%] | pest or weed control at 250 g/ha [2] [%] | pest or weed control at 15.625 g/ha [3] [%] | pest or weed control at 62.5 g/ha [3] [%] | pest or weed control at 250 g/ha [3] [%] | plant injury at 15.625 g/ha (corn (Zea mays) [4]) [%] | plant injury at 62.5 g/ha (corn (Zea mays) [4]) [%] | plant injury at 250 g/ha (corn (Zea mays) [4]) [%] | pest or weed control at 15.625 g/ha [5] [%] | pest or weed control at 62.5 g/ha [5] [%] | pest or weed control at 250 g/ha [5] [%] | pest or weed control at 15.625 g/ha [6] [%] | pest or weed control at 62.5 g/ha [6] [%] | pest or weed control at 250 g/ha [6] [%] | pest or weed control at 15.625 g/ha [7] [%] | pest or weed control at 62.5 g/ha [7] [%] | further results
1 | Cc1cc(F)ncc1NC(=O)[C@H]1C(=O)N(C)C[C@@H]1c1ccc(C(F)(F)F)cc1 (racemic) [Compound 1733] | 0 | 20 | 70 | 0 | 20 | 80 | 0 | 50 | 80 | 0 | 20 | 80 | 10 | 80 | 90 | 0 | 70 | 80 | 0 | 0 | pest or weed control at 250 g/ha [7]: 80%; pest or weed control at 15.625 g/ha [8]: 20%; pest or weed control at 62.5 g/ha [8]: 60%; pest or weed control at 250 g/ha [8]: 70%; pest or weed control at 15.625 g/ha [9]: 0%; pest or weed control at 62.5 g/ha [9]: 40%; pest or weed control at 250 g/ha [9]: 80%; plant injury at 15.625 g/ha (corn (Zea mays) [10]): 0%; plant injury at 62.5 g/ha (corn (Zea mays) [10]): 50%; plant injury at 250 g/ha (corn (Zea mays) [10]): 70%; pest or weed control at 15.625 g/ha [11]: 10%; pest or weed control at 62.5 g/ha [11]: 80%; pest or weed control at 250 g/ha [11]: 80%; pest or weed control at 15.625 g/ha [12]: 10%; pest or weed control at 62.5 g/ha [12]: 20%; pest or weed control at 250 g/ha [12]: 80%
2 | CN1C[C@H](c2cccc(C(F)(F)F)c2)[C@@H](C(=O)Nc2cc(C#N)ccn2)C1=O (racemic) [Compound 1735] | 0 | 0 | 0 | 0 | 0 | 0 | 0 | 0 | 0 | 0 | 0 | 0 | 0 | 0 | 0 | 0 | 0 | 0 | 0 | 0 | pest or weed control at 250 g/ha [7]: 0%; pest or weed control at 15.625 g/ha [8]: 0%; pest or weed control at 62.5 g/ha [8]: 0%; pest or weed control at 250 g/ha [8]: 0%; pest or weed control at 15.625 g/ha [9]: 0%; pest or weed control at 62.5 g/ha [9]: 0%; pest or weed control at 250 g/ha [9]: 0%; plant injury at 15.625 g/ha (corn (Zea mays) [10]): 0%; plant injury at 62.5 g/ha (corn (Zea mays) [10]): 0%; plant injury at 250 g/ha (corn (Zea mays) [10]): 0%; pest or weed control at 15.625 g/ha [11]: 0%; pest or weed control at 62.5 g/ha [11]: 0%; pest or weed control at 250 g/ha [11]: 0%; pest or weed control at 15.625 g/ha [12]: 0%; pest or weed control at 62.5 g/ha [12]: 0%; pest or weed control at 250 g/ha [12]: 0%
